The target in assay [1] is T1, ALDH1A1 (Homo sapiens, UniProt P00352).
T1 construct: purchased R&D Systems 5869-DH
T1 sequence (P00352 1-501): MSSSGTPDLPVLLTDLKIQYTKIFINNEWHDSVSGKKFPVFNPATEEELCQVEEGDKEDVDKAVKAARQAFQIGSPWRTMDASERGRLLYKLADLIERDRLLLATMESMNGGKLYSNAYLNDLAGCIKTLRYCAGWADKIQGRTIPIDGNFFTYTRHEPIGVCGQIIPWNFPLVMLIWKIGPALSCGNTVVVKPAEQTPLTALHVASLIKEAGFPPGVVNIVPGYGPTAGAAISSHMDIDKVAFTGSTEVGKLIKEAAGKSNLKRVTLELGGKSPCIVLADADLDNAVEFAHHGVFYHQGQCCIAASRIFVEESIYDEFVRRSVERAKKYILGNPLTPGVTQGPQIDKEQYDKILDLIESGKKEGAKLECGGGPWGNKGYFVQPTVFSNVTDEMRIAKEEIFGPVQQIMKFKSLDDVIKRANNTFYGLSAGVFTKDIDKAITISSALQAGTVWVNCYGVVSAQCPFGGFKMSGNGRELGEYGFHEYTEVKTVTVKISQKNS
Description: ALDH1 activity by resorufine propionate after treatment with interfering RNA ALDH1A1 (NCI-H522 cells). Format: cell-based. Conditions: 100 nM of siRNA, 10 μM resorufin propionate, P<0.05, FIG. 2. As for the experimental part: In a 60 mm Petri dish, the NCI-H522 cells were seeded at a concentration of 250.000 cells/plate, corresponding to a confluence of 40-50%, in RPMI-1640 medium supplemented with L-Glutamine, Penicillin, Streptomycin and 10% Fetal Calf Serum (FCS) overnight at 37° C. The next day, the medium was replaced by the same medium without FCS. The transfection solution was then prepared by diluting 100 nM in 500 μL of culture medium without FCS, to which 500 μL of culture medium without FCS supplemented with 3 μL of lipofectamine 2000 (Invitrogen) was added. The solution was then incubated for 30 minutes at room temperature and then drops added to the cell solution. The mixture was incubated at +37° C. in a 5% CO2 incubator for 8 hours. […] The specific activity of ALDH1A1 was then assayed by fluorescence.
The cells were inoculated at a concentration of 1×10^4 cells/well in a 96-well plate in 100 μl in RPMI-1640 medium without phenol red supplemented with L-Glutamine, Penicillin, Streptomycin and 10% Fetal Calf Serum (FCS) supplemented with 10 μM resorufin propionate. The cells were then incubated for 1 hour and then the plate was read using an Appliskan fluorescent plate reader (ex=560 nm, Em=600). The data were expressed in relative fluorescence units produced by an equal number of cells.

Assay [2] deals with T1, ALDH1A1. Description: Determination of the Km and Vmax of resorufine propionate with purified ALDH1A1. Type of assay: biochemical. Particulars: column ALDH1; relative to ALDH1. As for the experimental part:
(§1) In 50 μl of 0.1 M phosphate buffer pH6.00; 0.2 M KCl; 2 mM NADP+; 2 mM EDTA, a range of resorufine propionate was made: 250, 200, 150, 125, 100, 90, 80 and 70 μM and 0 μM. 50 μL of recombinant enzyme solution at 2.5 mU/well ALDH1A1 (R&D Sytems, 5869-DH), ALDH2 (abcam, ab87415) and ALDH3A1 (R&D Sytems, 6705-DH) was added. The incubation was carried out for 30 minutes at +37° C. and then the fluorescence reading was made (Em: 590 nm, Ex: 530 nm). The data were then converted to resorufin released (nM·min-1.μg^−1) and Km and Vmax were calculated using the Michaelis-Menten equation using GraphPad Prism 5.0.

The next assay deals with T2, ALDH2 (Homo sapiens, UniProt P05091).
T2 construct: purchased abcam ab87415
T2 sequence (P05091 18-517): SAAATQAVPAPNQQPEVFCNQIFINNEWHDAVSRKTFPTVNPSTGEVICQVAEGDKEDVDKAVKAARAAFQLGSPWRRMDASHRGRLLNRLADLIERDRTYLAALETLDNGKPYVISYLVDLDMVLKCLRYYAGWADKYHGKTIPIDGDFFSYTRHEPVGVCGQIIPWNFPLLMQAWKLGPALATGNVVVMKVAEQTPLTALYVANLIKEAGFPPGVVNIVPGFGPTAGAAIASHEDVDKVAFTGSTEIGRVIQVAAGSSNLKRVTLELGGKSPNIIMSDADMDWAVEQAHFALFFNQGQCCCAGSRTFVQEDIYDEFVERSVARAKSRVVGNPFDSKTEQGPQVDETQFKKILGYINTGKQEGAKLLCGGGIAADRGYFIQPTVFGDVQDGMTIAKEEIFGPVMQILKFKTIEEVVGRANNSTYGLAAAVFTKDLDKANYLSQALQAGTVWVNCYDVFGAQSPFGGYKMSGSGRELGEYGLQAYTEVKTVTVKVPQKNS
Description: Determination of the Km and Vmax of resorufine propionate with purified ALDH2. Particulars: column ALDH2; relative to ALDH1. Type of assay: biochemical. The procedure: as §1

The target in assay [3] is T1, ALDH1A1. Description: Double localization of resorufin propionate and ALDH1A1 by fluorescent microscopy (NCI-H522 cells). Format: cell-based. Conditions: 10 μM resorufin propionate, 30 minutes, results not shown. As for the experimental part:
In a 24-well plate with microscope glasses previously washed with ethanol and then placed in the wells, the NCI-H522 cells were added at a cell concentration of 50.000 cells/well and then incubated in RPMI-1640 medium supplemented with L-Glutamine, Penicillin, Streptomycin and 10% Fetal Calf Serum overnight at +37° C. with a 5% CO2 atmosphere. The next day, the culture medium was changed with either DIMATE (5 μM) or the treatment vehicle and incubated for 6 hours. The cells were incubated for 30 minutes with culture medium supplemented with 10 μM of resorufin propionate, were then washed with cold PBS and then fixed with paraformaldehyde for 15 minutes at 37° C. The cells were permeabilized and saturated with PBS; 3% bovine albumin; 0.3% triton for 1 hour. The incubation was carried out with the anti-ALDH1A1 antibody (R&D System, MAB5869) for 1 hour at +37° C., then with an anti-mouse antibody coupled to fluorescein for 1 hour at room temperature in the dark, with PBS washes between the two steps. 3 washes with PBS were carried out then the microscopy glasses were mounted with an anti-decoloration support supplemented with DAPI. The cells were then observed under a microscope.

Another assay has as its target T3, ALDH3A1 (Homo sapiens, UniProt P30838).
T3 construct: purchased R&D Systems 6705-DH
T3 sequence (P30838 1-453): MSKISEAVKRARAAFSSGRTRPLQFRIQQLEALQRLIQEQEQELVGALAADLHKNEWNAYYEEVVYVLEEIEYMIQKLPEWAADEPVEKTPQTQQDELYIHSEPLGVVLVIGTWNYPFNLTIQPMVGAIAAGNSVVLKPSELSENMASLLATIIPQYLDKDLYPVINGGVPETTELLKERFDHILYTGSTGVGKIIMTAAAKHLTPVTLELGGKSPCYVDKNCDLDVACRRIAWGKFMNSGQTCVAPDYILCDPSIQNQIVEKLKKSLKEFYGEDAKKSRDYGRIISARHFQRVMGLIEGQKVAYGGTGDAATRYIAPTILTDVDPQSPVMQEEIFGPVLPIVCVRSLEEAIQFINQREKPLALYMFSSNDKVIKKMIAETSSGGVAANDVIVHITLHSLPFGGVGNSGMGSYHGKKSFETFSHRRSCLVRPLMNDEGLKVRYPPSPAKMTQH
The experiment in a line: Determination of the Km and Vmax of resorufine propionate with purified ALDH3A1. Type of assay: biochemical. Particulars: column ALDH3. The procedure: as §1

In general, Km refers to the concentration of substrate that gives half-maximal velocity. As to `CCC(=O)Oc1ccc2nc3ccc(=O)cc-3oc2c1` [resorufine propionate, Resorufine propionate], the “signal resorufine propionate after ALDH1A1 siRNA” value on ALDH1A1 [1] is “decrease significant”. The Increase is given as 1 on ALDH1A1 [2], 0.54 on ALDH2 and 0.17 on ALDH3A1 (relative to ALDH1). Also, the “colocalization of fluorescent signal with ALDH1A1” value at ALDH1A1 [3] is on record as “can be colocalized with ALDH1A1”. Moreover, on ALDH3A1 (substrate range 70-250 μM), the Km came to 445 µM.

The values above are taken from US11519014B2, “Specific substrate of an ALDH isoenzyme” (ADVANCED BIODESIGN, priority 2016, dated 2022).
